Measured values published in ChEMBL document CHEMBL4819042, “Aromatic and Aliphatic Apiuronides from the Bark of Cinnamomum cassia” (J Nat Prod, 2021).
Active and inactive are the calls of the source. No cut-off for these calls is given here.

Test system: Mus musculus
Experiment: Analgesic activity against paclitaxel-induced cold allodynia in C57BL/6 mouse model at 10 mg/kg, po administered at day 14 and day 25 of post paclitaxel stimulation and measured after 1 hr
Format: functional, organism-based

`CC1=C(C(C)CO[C@@H]2O[C@H](CO)[C@@H](O)[C@H](O)[C@H]2O)C[C@@]2(O)[C@@]3(C)CC(=O)O[C@@H]4[C@@H](C)CC[C@@]3(O)[C@@]4(O)[C@@]12O` (some centres undefined) was tested, and the Activity was “Active”.
In the case of `COc1cc(O[C@@H]2O[C@H](CO[C@@H]3OC[C@](O)(CO)[C@H]3O)[C@@H](O)[C@H](O)[C@H]2O)cc(OC)c1OC`, the Activity is reported as “Active”.
`CC(C)[C@@]1(O)CC2(O)[C@@]3(O)[C@]45O[C@](O)(C[C@@]2(C)[C@@]4(O)CC[C@H](C)[C@H]5O)[C@@]31C` was tested, and the Activity was “Active”.
`COc1cc([C@H]2OC[C@H]3[C@@H]2CO[C@@H]3c2cc(OC)c(O)c(OC)c2)cc(OC)c1O` was tested, and the Activity was “Active”.
